{"source": "patent US20060141587A1", "about": "“Process for the preparation of L-3, 4-dihydroxyphenylalanine by aerobic fermentation of a microorganism” (DSM IP Assets B.V., priority 2002, published 2006)", "key": {"[1]": {"experiment": "Stability of L-dopa in fermentation broth adjusted to different pH, stored at room temperature (HPLC)", "format": "physicochemical", "conditions": "for L-dopa concentration, fermentation broth at pH 4.5 (sample 4): pH 4.5, room temperature; for L-dopa concentration, fermentation broth at pH 4.5 (sample 4) / L-dopa concentration, fermentation broth at pH 5.5 (sample 3) / L-dopa concentration, fermentation broth at pH 6.5 (sample 2) / L-dopa concentration, fermentation broth at pH 7.5 (sample 1): broth at pH 4.5 related to 10; for L-dopa concentration, fermentation broth at pH 5.5 (sample 3): pH 5.5, room temperature; for L-dopa concentration, fermentation broth at pH 6.5 (sample 2): pH 6.5, room temperature; for L-dopa concentration, fermentation broth at pH 7.5 (sample 1): pH 7.5, room temperature", "protocol": "(§1) To perform the HPLC analysis, the HPLC 1100 system of Aegilent (Waldbronn, Germany) with a Diode Array Detector was used. The compounds were measured at a wavelength of 200 nm. A Nucleosil-120-5-C18 column (250×4 mm) from Macherey-Nagel was used as the solid phase. The column was eluted using a gradient starting with eluent A (10 mM H3PO4) and eluent B (100% acetonitril). Gradient: 0 min 2% B, 25 min up to 90% B, 27 min to 30 min 2% B. The elution rate was set at 1.2 ml/min, the column temperature was set at 40° C.\nA sample of the fermentation broth in which L-dopa is present, prepared as described in example 6, which had been adjusted to pH 7.5 (sample 1), pH 6.5 (sample 2), pH 5.5 (sample 3) and pH 4.5 (sample 4) was used. The samples 1, 2, 3 and 4 were stored at room temperature for 600 hours and L-dopa concentrations were determined at several points in time (up to 600 hours). L-dopa concentrations were determined by HPLC analysis as a function of time (see: Table 4) with the […], i.e. fermentation broth at pH 4.5, related to 10."}, "[2]": {"experiment": "Stability of L-dopa during fed-batch fermentation with and without pH-shift", "format": "physicochemical, Escherichia coli", "protocol": "Cultivations in a fermentor were conducted in a 2.0 L bioreactor (Labfors, Infors; Switzerland) with 10% inoculation; which was cultivated at 33° C. The cultivation started at pH 6.7. The mineral fermentation medium (see composition above) was directly sterilized in the bioreactor together with the calibrated pH- and Oxygen-sensors.\npH was controlled by 17.5% NH4OH (1:2 diluted) and a 5 N KOH solution. A separate glucose feed (500 g·^−1) was started when the OD620nm was higher than 5. At OD620nm 10, which was reached after about 14 hours Isopropyl-beta-D-thiogalactopyranoside (IPTG) was added to a final concentration of 0.1 mM. […]\nBiomass (OD620nm) and L-dopa concentrations were determined by HPLC analysis (see example 5 for HPLC conditions) as a function of time (see: Table 1). The L-dopa concentration at 43 hours was related to 10.\nA fermentation was performed describes as in example 6 with the following differences:\nAt OD620nm 5 (reached after 7 hours) IPTG was added.\nThe L-dopa concentration reached after 32 hours was related to 10."}, "[3]": {"experiment": "Storage stability of L-dopa in fermentation broth, extracted water phase and reextraction medium (reactive extraction, HPLC)", "format": "physicochemical", "conditions": "for change of L-dopa concentration during storage: room temperature, up to 600 h; for relative L-dopa concentration of untreated fermentation broth (sample A, pH = 7.5): pH 7.5, stored at room temperature; for relative L-dopa concentration of water phase of fermentation broth extracted by kerosene/D2EHPA (sample B, pH acidic): stored at room temperature; for relative L-dopa concentration of re-extracted organic phase by KCl (sample C, pH = 6.3): pH 6.3, stored at room temperature", "protocol": "as §1\nA sample of the fermentation broth in which L-dopa is present, prepared as described in example 6, which had been adjusted to pH 7,5 (sample A), was used. 5 ml kerosene containing 10% D2EHPA (pH acidic) was mixed vigorously with the same volume of sample A for 30 seconds on a vortex mixer. After separation of the two phases (about 10 minutes) the water phase containing L-dopa, the extraction medium (sample B) was stored at room temperature. L-dopa dissolved in the organic phase was reextracted by mixing 2 ml of the organic phase with 1 ml of 1 M KCl (pH=6.3) by shaking vigorously for 30s. After separation of the two phases (about 10 minutes), the water phase containing L-dopa, the reextraction medium (sample C) was stored at room temperature. The samples A, B and C were stored at room temperature for 600 hours and L-dopa concentrations were determined at several points in time (up to 600 hours). L-dopa concentrations were determined by HPLC analysis as a function of time (see: Table 3)."}}, "data": [{"smiles": "N[C@@H](Cc1ccc(O)c(O)c1)C(=O)O", "note": "[L-dopa, L-3,4-dihydroxyphenylalanine]", "values": [{"measurement": "L-dopa concentration, fermentation broth at pH 4.5 (sample 4)", "setting": "[1]; 24 h", "result": 10}, {"measurement": "L-dopa concentration, fermentation broth at pH 4.5 (sample 4)", "setting": "[1]; 96 h", "result": 10}, {"measurement": "L-dopa concentration, fermentation broth at pH 4.5 (sample 4)", "setting": "[1]; 168 h", "result": 10}, {"measurement": "L-dopa concentration, fermentation broth at pH 4.5 (sample 4)", "setting": "[1]; 336 h", "result": 10}, {"measurement": "L-dopa concentration, fermentation broth at pH 4.5 (sample 4)", "setting": "[1]; 408 h", "result": 10}, {"measurement": "L-dopa concentration, fermentation broth at pH 4.5 (sample 4)", "setting": "[1]; 504 h", "result": 10}, {"measurement": "L-dopa concentration, fermentation broth at pH 4.5 (sample 4)", "setting": "[1]; 600 h", "result": 10}, {"measurement": "L-dopa concentration, fermentation broth at pH 5.5 (sample 3)", "setting": "[1]; 24 h", "result": 9}, {"measurement": "L-dopa concentration, fermentation broth at pH 5.5 (sample 3)", "setting": "[1]; 96 h", "result": 9}, {"measurement": "L-dopa concentration, fermentation broth at pH 5.5 (sample 3)", "setting": "[1]; 168 h", "result": 9}, {"measurement": "L-dopa concentration, fermentation broth at pH 5.5 (sample 3)", "setting": "[1]; 336 h", "result": 9}, {"measurement": "L-dopa concentration, fermentation broth at pH 5.5 (sample 3)", "setting": "[1]; 408 h", "result": 9}, {"measurement": "L-dopa concentration, fermentation broth at pH 5.5 (sample 3)", "setting": "[1]; 504 h", "result": 8}, {"measurement": "L-dopa concentration, fermentation broth at pH 5.5 (sample 3)", "setting": "[1]; 600 h", "result": 8}, {"measurement": "L-dopa concentration, fermentation broth at pH 6.5 (sample 2)", "setting": "[1]; 24 h", "result": 7}, {"measurement": "L-dopa concentration, fermentation broth at pH 6.5 (sample 2)", "setting": "[1]; 96 h", "result": 7}, {"measurement": "L-dopa concentration, fermentation broth at pH 6.5 (sample 2)", "setting": "[1]; 168 h", "result": 7}, {"measurement": "L-dopa concentration, fermentation broth at pH 6.5 (sample 2)", "setting": "[1]; 336 h", "result": 5}, {"measurement": "L-dopa concentration, fermentation broth at pH 6.5 (sample 2)", "setting": "[1]; 408 h", "result": 5}, {"measurement": "L-dopa concentration, fermentation broth at pH 6.5 (sample 2)", "setting": "[1]; 504 h", "result": 4}, {"measurement": "L-dopa concentration, fermentation broth at pH 6.5 (sample 2)", "setting": "[1]; 600 h", "result": 4}, {"measurement": "L-dopa concentration, fermentation broth at pH 7.5 (sample 1)", "setting": "[1]; 24 h", "result": 6}, {"measurement": "L-dopa concentration, fermentation broth at pH 7.5 (sample 1)", "setting": "[1]; 96 h", "result": 6}, {"measurement": "L-dopa concentration, fermentation broth at pH 7.5 (sample 1)", "setting": "[1]; 168 h", "result": 5}, {"measurement": "L-dopa concentration, fermentation broth at pH 7.5 (sample 1)", "setting": "[1]; 336 h", "result": 4}, {"measurement": "L-dopa concentration, fermentation broth at pH 7.5 (sample 1)", "setting": "[1]; 408 h", "result": 3}, {"measurement": "L-dopa concentration, fermentation broth at pH 7.5 (sample 1)", "setting": "[1]; 504 h", "result": 3}, {"measurement": "L-dopa concentration, fermentation broth at pH 7.5 (sample 1)", "setting": "[1]; 600 h", "result": 2}, {"measurement": "effect of pH of the fermentation broth on stability of L-dopa", "setting": "[1]; pH 7.5 to 4.5, room temperature, up to 600 h", "result": "lower pH values of the fermentation broth increase the stability of L-dopa"}, {"measurement": "stability of L-dopa in the fermentation", "setting": "[2]; fermentation at pH 6.7, no pH-shift", "result": "less stable"}, {"measurement": "stability of L-dopa in the fermentation", "setting": "[2]; fermentation with pH-shift from pH 6.7 to pH 5.8", "result": "stable"}, {"measurement": "change of L-dopa concentration during storage", "setting": "[3]; after extraction of the broth with kerosene/D2EHPA (sample B, acidic pH)", "result": "decrease of concentration of L-dopa was nearly prevented"}, {"measurement": "change of L-dopa concentration during storage", "setting": "[3]; after re-extraction with KCl (sample C, pH 6.3)", "result": "no decrease of L-dopa concentration was observed"}, {"measurement": "change of L-dopa concentration during storage", "setting": "[3]; fermentation broth without kerosene/D2EHPA extraction (sample A, pH 7.5)", "result": "decreases during the storage time"}, {"measurement": "relative L-dopa concentration of untreated fermentation broth (sample A, pH = 7.5)", "setting": "[3]; 24 h", "result": 0.7}, {"measurement": "relative L-dopa concentration of untreated fermentation broth (sample A, pH = 7.5)", "setting": "[3]; 96 h", "result": 0.7}, {"measurement": "relative L-dopa concentration of untreated fermentation broth (sample A, pH = 7.5)", "setting": "[3]; 168 h", "result": 0.6}, {"measurement": "relative L-dopa concentration of untreated fermentation broth (sample A, pH = 7.5)", "setting": "[3]; 336 h", "result": 0.5}, {"measurement": "relative L-dopa concentration of untreated fermentation broth (sample A, pH = 7.5)", "setting": "[3]; 408 h", "result": 0.4}, {"measurement": "relative L-dopa concentration of untreated fermentation broth (sample A, pH = 7.5)", "setting": "[3]; 504 h", "result": 0.4}, {"measurement": "relative L-dopa concentration of untreated fermentation broth (sample A, pH = 7.5)", "setting": "[3]; 600 h", "result": 0.3}, {"measurement": "relative L-dopa concentration of water phase of fermentation broth extracted by kerosene/D2EHPA (sample B, pH acidic)", "setting": "[3]; 24 h", "result": 0.8}, {"measurement": "relative L-dopa concentration of water phase of fermentation broth extracted by kerosene/D2EHPA (sample B, pH acidic)", "setting": "[3]; 96 h", "result": 0.7}, {"measurement": "relative L-dopa concentration of water phase of fermentation broth extracted by kerosene/D2EHPA (sample B, pH acidic)", "setting": "[3]; 168 h", "result": 0.7}, {"measurement": "relative L-dopa concentration of water phase of fermentation broth extracted by kerosene/D2EHPA (sample B, pH acidic)", "setting": "[3]; 336 h", "result": 0.8}, {"measurement": "relative L-dopa concentration of water phase of fermentation broth extracted by kerosene/D2EHPA (sample B, pH acidic)", "setting": "[3]; 408 h", "result": 0.7}, {"measurement": "relative L-dopa concentration of water phase of fermentation broth extracted by kerosene/D2EHPA (sample B, pH acidic)", "setting": "[3]; 504 h", "result": 0.8}, {"measurement": "relative L-dopa concentration of water phase of fermentation broth extracted by kerosene/D2EHPA (sample B, pH acidic)", "setting": "[3]; 600 h", "result": 0.7}, {"measurement": "relative L-dopa concentration of re-extracted organic phase by KCl (sample C, pH = 6.3)", "setting": "[3]; 24 h", "result": 0.3}, {"measurement": "relative L-dopa concentration of re-extracted organic phase by KCl (sample C, pH = 6.3)", "setting": "[3]; 96 h", "result": 0.3}, {"measurement": "relative L-dopa concentration of re-extracted organic phase by KCl (sample C, pH = 6.3)", "setting": "[3]; 168 h", "result": 0.3}, {"measurement": "relative L-dopa concentration of re-extracted organic phase by KCl (sample C, pH = 6.3)", "setting": "[3]; 336 h", "result": 0.4}, {"measurement": "relative L-dopa concentration of re-extracted organic phase by KCl (sample C, pH = 6.3)", "setting": "[3]; 408 h", "result": 0.4}, {"measurement": "relative L-dopa concentration of re-extracted organic phase by KCl (sample C, pH = 6.3)", "setting": "[3]; 504 h", "result": 0.4}, {"measurement": "relative L-dopa concentration of re-extracted organic phase by KCl (sample C, pH = 6.3)", "setting": "[3]; 600 h", "result": 0.4}]}]}
